For orientation: pIC50 means the IC50 on a negative log10 scale, so that one unit is a factor of ten.

IC50 and Ratio IC50 data for six molecules are collected here from ChEMBL document CHEMBL1140900, “Synthesis, biological evaluation, and docking studies of N-substituted acetamidines as selective inhibitors of inducible nitric oxide synthase” (J Med Chem, 2009).

pIC50: −log10 of the molar value.

For assay [1], the target named is Nitric oxide synthase, inducible (Homo sapiens, UniProt P35228). The assay is described as follows: Inhibition of iNOS in LPS treated human THP1 cell homogenate assessed as conversion of L-[2,3-3H]arginine to L-[2,3-3H]citrulline pre-incubated 1 hr before LPS challenge by whole cell assay. In kind it is cell-based, THP-1.
Sequence of Nitric oxide synthase, inducible (P35228 whole entry): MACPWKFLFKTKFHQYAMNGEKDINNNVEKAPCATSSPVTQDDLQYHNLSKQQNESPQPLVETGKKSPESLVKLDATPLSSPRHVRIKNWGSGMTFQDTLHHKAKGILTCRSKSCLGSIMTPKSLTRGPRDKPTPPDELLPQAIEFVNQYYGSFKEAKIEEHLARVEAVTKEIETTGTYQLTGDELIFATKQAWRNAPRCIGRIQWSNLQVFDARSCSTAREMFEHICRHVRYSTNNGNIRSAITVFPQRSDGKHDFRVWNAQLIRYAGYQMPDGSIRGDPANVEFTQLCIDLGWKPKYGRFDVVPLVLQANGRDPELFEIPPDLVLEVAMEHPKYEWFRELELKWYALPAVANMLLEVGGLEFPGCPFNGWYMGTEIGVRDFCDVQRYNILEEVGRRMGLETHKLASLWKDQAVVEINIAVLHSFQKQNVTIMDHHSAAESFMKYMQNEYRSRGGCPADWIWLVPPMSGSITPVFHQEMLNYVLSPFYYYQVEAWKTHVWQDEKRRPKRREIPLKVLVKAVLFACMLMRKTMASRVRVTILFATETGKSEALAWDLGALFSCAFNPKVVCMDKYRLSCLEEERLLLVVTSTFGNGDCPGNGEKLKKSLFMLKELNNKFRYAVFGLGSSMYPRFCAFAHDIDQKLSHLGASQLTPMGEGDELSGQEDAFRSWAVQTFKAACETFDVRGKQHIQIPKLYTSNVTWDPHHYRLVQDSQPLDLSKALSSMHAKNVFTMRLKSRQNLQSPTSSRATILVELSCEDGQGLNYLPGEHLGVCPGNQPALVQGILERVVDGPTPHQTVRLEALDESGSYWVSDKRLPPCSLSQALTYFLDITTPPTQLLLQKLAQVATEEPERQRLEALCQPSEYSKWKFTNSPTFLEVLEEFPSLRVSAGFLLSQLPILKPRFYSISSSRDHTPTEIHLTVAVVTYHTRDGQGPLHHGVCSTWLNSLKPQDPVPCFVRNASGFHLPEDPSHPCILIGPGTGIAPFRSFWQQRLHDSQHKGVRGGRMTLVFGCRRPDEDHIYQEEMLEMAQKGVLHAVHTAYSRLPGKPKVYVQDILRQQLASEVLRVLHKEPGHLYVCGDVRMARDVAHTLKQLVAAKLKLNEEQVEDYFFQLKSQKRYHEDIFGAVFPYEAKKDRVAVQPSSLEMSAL
Another assay concerns the target T1, Nitric oxide synthase 3 (Homo sapiens, UniProt P29474).
T1 sequence (P29474 whole entry): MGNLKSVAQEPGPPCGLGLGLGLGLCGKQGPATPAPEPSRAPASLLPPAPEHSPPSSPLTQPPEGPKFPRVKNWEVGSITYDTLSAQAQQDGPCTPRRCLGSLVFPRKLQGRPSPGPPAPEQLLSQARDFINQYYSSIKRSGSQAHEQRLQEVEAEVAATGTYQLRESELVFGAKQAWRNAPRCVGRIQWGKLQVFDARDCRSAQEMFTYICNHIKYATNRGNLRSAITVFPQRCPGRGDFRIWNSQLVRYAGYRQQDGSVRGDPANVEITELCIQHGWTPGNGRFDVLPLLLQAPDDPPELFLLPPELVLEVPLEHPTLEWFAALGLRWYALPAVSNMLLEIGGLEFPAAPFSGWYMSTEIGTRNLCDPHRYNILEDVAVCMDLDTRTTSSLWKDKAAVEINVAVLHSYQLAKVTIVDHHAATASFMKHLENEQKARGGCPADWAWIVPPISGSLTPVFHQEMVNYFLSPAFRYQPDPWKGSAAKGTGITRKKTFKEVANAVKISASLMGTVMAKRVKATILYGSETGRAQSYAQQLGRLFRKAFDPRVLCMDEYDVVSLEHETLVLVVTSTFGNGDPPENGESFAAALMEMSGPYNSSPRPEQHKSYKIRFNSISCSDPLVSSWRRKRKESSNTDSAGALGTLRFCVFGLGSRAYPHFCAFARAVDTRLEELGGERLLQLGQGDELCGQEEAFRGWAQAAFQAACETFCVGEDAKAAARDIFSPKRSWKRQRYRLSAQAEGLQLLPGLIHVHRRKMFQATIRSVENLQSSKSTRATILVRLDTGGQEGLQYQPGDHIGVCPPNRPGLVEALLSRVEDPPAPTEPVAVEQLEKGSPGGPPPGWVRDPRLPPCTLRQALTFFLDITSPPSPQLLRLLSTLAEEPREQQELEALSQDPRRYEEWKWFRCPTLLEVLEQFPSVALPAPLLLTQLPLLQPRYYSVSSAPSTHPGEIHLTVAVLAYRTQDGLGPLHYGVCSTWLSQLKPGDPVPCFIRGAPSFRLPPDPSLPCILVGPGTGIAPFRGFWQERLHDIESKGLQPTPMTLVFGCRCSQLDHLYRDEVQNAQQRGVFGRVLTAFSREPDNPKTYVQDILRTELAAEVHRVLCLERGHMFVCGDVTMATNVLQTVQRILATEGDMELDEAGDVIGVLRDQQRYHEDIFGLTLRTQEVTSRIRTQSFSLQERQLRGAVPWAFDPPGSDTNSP
The assay is described as follows: Inhibition of eNOS in LPS treated human THP1 cell homogenate assessed as conversion of L-[2,3-3H]arginine to L-[2,3-3H]citrulline pre-incubated 1 hr before LPS challenge by whole cell assay. In kind it is cell-based, THP-1.

Another assay is filed under the species Homo sapiens. The assay is described as follows: Selectivity ratio of IC50 for human eNOS to IC50 for human iNOS.

In the case of `CC(=N)NCc1cccc(CNCc2ccncc2)c1`, the pIC50 was 6.46 in assay [1] and 4.70 on Nitric oxide synthase 3. The Ratio IC50 in the assay filed under Homo sapiens worked out at 57.
As to `CC(=N)NCc1cccc(CNS(=O)(=O)c2ccc(C)cc2)c1`, the negative logarithm of the IC50 (pIC50) in assay [1] is 6.30; at Nitric oxide synthase 3 it was 3.52. Moreover, in the assay filed under Homo sapiens, the Ratio IC50 was determined as 600.
On to `CC(=N)N[C@@H](C)c1ccccc1`, for which the pIC50 in assay [1] was 6.35; on Nitric oxide synthase 3, 3.52. Further, in the assay filed under Homo sapiens, the Ratio IC50 stood at 666.
On to `CCC(NC(C)=N)c1ccccc1` (racemic), for which the pIC50 is 6.60 in assay [1] and 4.10 at Nitric oxide synthase 3. Further, the Ratio IC50 in the assay filed under Homo sapiens came to 320.
Take `CC(=N)NCc1ccccc1`: the pIC50 in assay [1] was 6.70; on Nitric oxide synthase 3, 3.46. Further, the Ratio IC50 in the assay filed under Homo sapiens came to 1750.
As for `CCOC(=O)N1CCC(NC(C)=N)CC1`, the values for the pIC50 (in assay [1]; on Nitric oxide synthase 3) were 6.60 and 4.05, respectively. The Ratio IC50 in the assay listed under Homo sapiens is 360.
